Results on 3 compounds are retold here after patent publication US11046701B2, “Salt of cetagliptin, preparation method thereof, pharmaceutical composition, and use thereof” (CGENETECH (SUZHOU, CHINA) CO., LTD., priority 2018, dated 2021).

In series [1] the test system is DIO mice. The series is described as follows: Long-term administration on DIO mice: serum metabolic parameters (NEFA, TCHO, TG, insulin). The class given is in vivo, C57BL16 mice. As to conditions: 30 mg/kg, end of long-term administration. The source says:
Experimental animals: […] Table 18 was a total data table of the metabolic parameters.

Series [2] in a line: PK/PD experiment of ICR mice: plasma concentration. The class given is in vivo, CD-1 (ICR) mice. As to conditions: CD-1 (ICR), mouse, oral dose 3 mg/kg. How it is done:
(§1) Experimental animals: CD-1 (ICR) mice aged for 4 weeks and weighed for about 18-22 g.
(§2) Grouping and administration scheme: the mice were fed adaptively, randomly grouped according to the weight on the day before experiment, and fasted overnight. […] After the experimental grouping, the group provided separately for detecting the initial basic value of DPPIV was carried out blood sampling, and other animals were intragastrically administrated with the drug at an administration volume of 10 mL/kg, the blood was sampled after the administration, and all other animals were stimulated with glucose administration; the blood was sampled at 20 min, 40 min, 60 min and 120 min after the glucose administration, respectively, and the plasma concentration and the DPPIV activity were detected by using plasma.
Research on pharmacodynamics-plasma concentration correlation: blood samples were collected at time points of 1 h, 1.33 h, 1.67 h, 2 h and 3 h after administration, and the plasma concentration was measured. The drug exposure value (AUCeff0-3h) of the DPPIV-P1 increased with the increase of dose, which was 16.09 ng·h/mL, 52.65 ng·h/mL, 162.3 ng·h/mL and 542.28 ng·h/mL, respectively.

The nature of series [3]: Weight of ICR mice of each group. The class given is in vivo, CD-1 (ICR) mice. Conditions: individual animals, 3 mg/kg group, 3 mg/kg. How it is done:
as §1, §2

Series [4] concerns DIO mice. The experiment in a line: Long-term administration on DIO mice: fasting blood glucose. The class given is in vivo. Conditions: for Fasting blood glucose: 30 mg/kg daily intragastric.
Method: (§3) A solution with a certain concentration was prepared from the crystal form B of the phosphate, and the administration volume was 10 mL/kg.
(§4) Experimental animals: C57BL16 mice aged for 5 weeks and weighed for about 13-16 g.
(§5) Grouping and administration scheme: the mice were fed adaptively and divided into a normal control group and a model group which were fed with high-fat feed (Research diets, D 12492). When the fasting blood glucose of the mice was greater than or equal to 7 mM, it was considered that the mice had become DIO mice. The DIO mice could be selected for the hypoglycemic effect test. The DIO mice were stratified and randomly grouped according to the blood glucose and the weight. […] The weight and the fasting blood glucose were measured weekly; the food amount, the remaining food amount and the food intake were recorded; the mice were fasted overnight at the end of administration, the blood was sampled, and the free fatty acid (NEFA), total cholesterol (TCHO), triglyceride (TG), insulin and DPPIV activity were measured by using serum.
Series [5] is described as follows: Long-term administration on DIO mice: weight, food intake, tolerance.
Method: as §3, §4, §5
Series [6] in a line: Rough solubility of the amorphous phosphate in solvents. The format is physicochemical. Conditions: thermodynamic from solid. How it is done:
The rough solubility of the amorphous phosphate prepared in Example 1 was measured. During the test, about 2 mg of the amorphous phosphate prepared in Example 1 was weighed and put into a 3 mL glass bottle, the solvents listed in the following Table 8 were added separately at an amount of 20 microliters/each time, and it was observed whether the sample was completely dissolved. If the sample was still not dissolved completely after 2.0 mL of the solvents was added, the test ended.

The nature of series [7]: XRPD of phosphate crystal form A after heating. As to conditions: heated for 48 h at 50° C. The class given is physicochemical. From the text:
After detection, the obtained solid was the crystal form A of phosphate, its XRPD data was shown in Table 9 below, its XRPD pattern was shown in FIG. 4, and its TGA chart and DSC chart were shown in FIG. 5. […] (peak temperatures) before decomposition.

Molecules are shown by their SMILES. Values after ≈ are worked out from the molar mass of the structure shown. Values joined by “and” are separate entries in the source; they are usually repeats but may differ in a detail not shown here. Equal values may be shown once.

As to `N[C@@H](CC(=O)N1CCn2c(nnc2C(F)(F)F)C1)Cc1cc(F)c(F)cc1F` [Sitagliptin phosphate, reference compound], the “decrease of insulin compared with the model control group” value in the series on DIO mice [1] stood at 58.3%. The “decrease of total cholesterol (TCHO) compared with the model control group” value in the series with DIO mice [1] was found to be 25.4%. Moreover, the “Serum NEFA” value with DIO mice [1] (fasted overnight) amounted to 1.11 ± 0.13 mmol/L. In addition, the “Serum TCHO” value in the series with DIO mice [1] (fasted overnight) is 3.99 ± 0.798 mmol/L. Besides, the “Serum TG” value in the series with DIO mice [1] (fasted overnight) turned out to be 0.94 ± 0.15 mmol/L. The Serum insulin in the series with DIO mice [1] (fasted overnight) is listed as 2.2 ± 1.38 ng/mL. The same compound returned a concentration at 1 h in series [2] (1 hour) of 184 ± 10.2 ng/mL. This compound also returned a concentration at 1.33 h in series [2] (1.33 hours) of 159 ± 46.6 ng/mL. Also, the concentration at 1.67 h in series [2] (1.67 hours) was 152 ± 15.1 ng/mL. This compound gave a concentration at 2 h in series [2] (2 hours) of 142 ± 19.6 ng/mL. This compound yielded a concentration at 3 h in series [2] (3 hours) of 97.9 ± 35.5 ng/mL. Also, the AUC in series [2] (read-out: Drug exposure (AUCeff0-3 h)) turned out to be 370 ng·h/mL. In addition, the weight in series [3] was 24.0 (3×) and 26.0 (2×) and 25.1 (2×) and 25.0 and 24.6 (2×) and 24.4 and 24.3 and 22.9 and 22.2 and 26.5; in series [5] (30 mg/kg daily, D1) it was 37.2 ± 4.4 g; in series [5] (30 mg/kg daily, D7), 35.3 ± 3.7 g; in series [5] (30 mg/kg daily, D14) it was 34.4 ± 4.9 g; in series [5] (30 mg/kg daily, D21) it was 37.2 ± 5.3 g; in series [5] (30 mg/kg daily, D28), 39.5 ± 5.0 g. The same compound yielded a weight in series [5] (30 mg/kg, total data table of metabolic parameters (end of experiment)) of 39.5 ± 5.0 g. Moreover, the Fasting blood glucose with DIO mice [4] (D 1) is 8.3 ± 1.1 mmol/L; in the series on DIO mice [4] (D 3), 6.8 ± 1.1 mmol/L; in the series with DIO mice [4] (D 7) it was 8.0 ± 1.2 mmol/L; with DIO mice [4] (D 14), 8.5 ± 1.3 mmol/L; with DIO mice [4] (D 21) it was 8.9 ± 0.9 mmol/L; in the series with DIO mice [4] (D 28), 8.6 ± 0.9 mmol/L. For the same compound, the “fasting blood glucose data after the drug was administrated for 28 days” value with DIO mice [4] (individual animals, 30 mg/kg) was 8.9 and 8.3 and 8.4 and 7.8 and 9.1 and 8.2 and 9.8 and 7.9 (2×) and 8 and 10.8. For the same compound, the Food intake in series [5] (30 mg/kg) came out at 2.2 ± 5.0 g/day. Besides, the “weight after the drug was administrated for 28 days” value in series [5] (individual animals, 30 mg/kg) is 39.9 (2×) and 31.0 and 34.8 and 41.6 and 32.2 and 40.5 and 40.8 and 45.6 and 47.1 and 41.0.
A word on the solubility: it is how much of the substance goes into solution per volume. As for `C[C@@H]1c2cnc(C(F)(F)F)n2CCN1C(=O)C[C@H](N)Cc1cc(F)c(F)cc1F` [Example 1, (8R)-7-[(3R)-3-amino-1-oxo-4-(2,4,5-trifluorophenyl)butyl]-5,6,7,8-tetrahydro-8-methyl-3-(trifluoromethyl)imidazo[1,5-a]pyrazine], the solubility in series [6] (1,4-Dioxane, organic solvent or mixture) was 2.7 to 2.9 mg/mL (≈ 6.42 to 6.9 mM); in series [6] (2-MeTHF, organic solvent or mixture), 38.3 to 57.5 mg/mL (≈ 91.1 to 137 mM); in series [6] (ACN, organic solvent or mixture), 57.5 to 115 mg/mL (≈ 137 to 274 mM); in series [6] (Acetic acid, organic solvent or mixture), less than 54 mg/mL; in series [6] (Acetone, organic solvent or mixture) it was 47.5 to 95 mg/mL (≈ 113 to 226 mM); in series [6] (CHCl3, organic solvent or mixture), less than 1.3 mg/mL. The solubility in series [6] (DCM, organic solvent or mixture) is less than 1.1 mg/mL; in series [6] (DMF, organic solvent or mixture), less than 42 mg/mL; in series [6] (DMSO, organic solvent or mixture), 46 to 115 mg/mL (≈ 109 to 274 mM); in series [6] (EtOAc, organic solvent or mixture), less than 1.1 mg/mL; in series [6] (EtOH, organic solvent or mixture), 57.5 to 115 mg/mL (≈ 137 to 274 mM); in series [6] (Heptane, organic solvent or mixture), less than 1.3 mg/mL. Besides, the solubility in series [6] (Hexane, organic solvent or mixture) is less than 1.2 mg/mL; in series [6] (IPA, organic solvent or mixture) it was 38.3 to 57.5 mg/mL (≈ 91.1 to 137 mM); in series [6] (IPAc, organic solvent or mixture), less than 1.1 mg/mL; in series [6] (MEK, organic solvent or mixture), 72.5 to 145 mg/mL (≈ 172 to 345 mM); in series [6] (MIBK, organic solvent or mixture), less than 1 mg/mL; in series [6] (MTBE, organic solvent or mixture), less than 0.9 mg/mL. The solubility is 67.5 to 135 mg/mL (≈ 161 to 321 mM) in series [6] (MeOH, organic solvent or mixture); 20 to 40 mg/mL (≈ 47.6 to 95.2 mM) in series [6] (NMP, organic solvent or mixture); 46 to 115 mg/mL (≈ 109 to 274 mM) in series [6] (THF, organic solvent or mixture); less than 1 mg/mL in series [6] (Toluene, organic solvent or mixture); less than 1 mg/mL in series [6] (cyclohexanol, organic solvent or mixture); 10 to 13.3 mg/mL (≈ 23.8 to 31.6 mM) in series [6] (isoamyl alcohol, organic solvent or mixture). For the same compound, the solubility in series [6] (isobutyl alcohol, organic solvent or mixture) was 3.8 to 4.7 mg/mL (≈ 9.04 to 11.2 mM); in series [6] (n-amyl alcohol, organic solvent or mixture), 6.8 to 8.5 mg/mL (≈ 16.2 to 20.2 mM); in series [6] (n-butyl alcohol, organic solvent or mixture) it was 60 to 120 mg/mL (≈ 143 to 285 mM); in series [6] (organic solvent or mixture, 1- Octanol) it was less than 0.9 mg/mL; in series [6] (sec-butyl alcohol, organic solvent or mixture) it was less than 1 mg/mL; in series [6] (water, H2O), 21 to 42 mg/mL (≈ 50 to 99.9 mM).
On to `C[C@@H]1c2cnc(C(F)(F)F)n2CCN1C(=O)C[C@H](N)Cc1cc(F)c(F)cc1F` [phosphate crystal form A, (8R)-7-[(3R)-3-amino-1-oxo-4-(2,4,5-trifluorophenyl)butyl]-5,6,7,8-tetrahydro-8-methyl-3-(trifluoromethyl)imidazo[1,5-a]pyrazine], for which the “crystal form after heating (XRPD)” value in series [7] is reported as “transformed into a phosphate crystal form B”.
